# From patent US9345244B2, “Plant growth regulating compounds” (Syngenta Participations AG, priority 2011, dated 2016)
# Key:
# [1] = test system: Wheat (Triticum aestivum) seeds of the variety Arina; experiment: Wheat assay (plant area and root curliness); format: in vivo; conditions: wheat var. Arina seeds in mini-pouches with 5 mL compound solution; twelve days after sowing/application
# Method: Two bioassays were developed in order to assay the activity of the compounds of the present invention. In the first assay, the activity of the compound was quantified in beans based on its effect on the elongation of the petiole of the second leaf. In the second assay, the compound's effect on the root growth of wheat was determined.
# The test compounds were dissolved in small volumes of dimethyl sulfoxide and diluted to the appropriate concentration with water. Wheat (Triticum aestivum) seeds of the variety Arina were sown in mini-pouches (10.5×9.0 cm) containing 5 mL of the appropriate compound solution. The mini pouches were stored at 17° C. for three days to enable the seeds to germinate. Plants were then stored at 5° C. Twelve days after sowing/application, plants were removed from the mini-pouches and scanned. The effect of the compounds was quantified by determining plant (root and shoot) area and curliness of the roots (curliness is an indicator of brassinosteroid-type activity).
Structure (SMILES),curliness of the roots (indicator of brassinosteroid-type activity) [1],melting point [°C]
"COC(=O)CCC(=O)Nc1ccc(C#N)cn1 [Compound A1, methyl 4-[(5-cyano-2-pyridyl)amino]-4-oxo-butanoate]",curly root phenotype,161 to 164
"N#Cc1ccc(NC(=O)CCC(=O)O)nc1 [Compound A2, 4-[(5-cyano-2-pyridyl)amino]-4-oxo-butanoic acid]",curly root phenotype,220 to 221
"N#Cc1cc(I)cnc1NC(=O)CCC(=O)O [Compound A4, 4-[(3-cyano-5-iodo-2-pyridyl)amino]-4-oxo-butanoic acid]",–,215 to 218
"O=C(O)CCC(=O)Nc1ccc(C(F)(F)F)cn1 [Compound A19, 4-oxo-4-[[5-(trifluoromethyl)-2-pyridyl]amino]butanoic acid]",curly root phenotype,–
"CCOC(=O)CCC(=O)Nc1ccc(C#N)cn1 [Compound A22, Ethyl 4-[(5-cyano-2-pyridyl)amino]-4-oxo-butanoate]",curly root phenotype,–
"CCOc1cc(NC(=O)CCC(=O)OC)ncc1Cl [Compound A31, Methyl 4-[(5-chloro-4-ethoxy-2-pyridyl)amino]-4-oxo-butanoate]",curly root phenotype,–
"CCOc1cc(NC(=O)CCC(=O)O)ncc1Cl [Compound A32, 4-[(5-chloro-4-ethoxy-2-pyridyl)amino]-4-oxo-butanoic acid]",curly root phenotype,–
"CCOc1cc(NC(=O)CCC(=O)OC)ncc1Br [Compound A38, Methyl 4-[(5-bromo-4-ethoxy-2-pyridyl)amino]-4-oxo-butanoate]",curly root phenotype,–
"CCOc1cc(NC(=O)CCC(=O)O)ncc1Br [Compound A39, 4-[(5-bromo-4-ethoxy-2-pyridyl)amino]-4-oxo-butanoic acid]",curly root phenotype,–
"COC(=O)CCC(=O)Nc1ccc(-c2nnn[nH]2)cn1 [Compound A65, Methyl 4-oxo-4-[[5-(1H-tetrazol-5-yl)-2-pyridyl]amino]butanoate]",–,246 to 248
"COC(=O)C(C)(C)CC(=O)Nc1ccc(C#N)cn1 [Compound B1, Methyl 4-[(5-cyano-2-pyridyl)amino]-2,2-dimethyl-4-oxo-butanoate]",–,129
